Measurements taken from the Deep4Chem optical property database.
Values joined by “and” are separate entries in the source; they are usually repeats but may differ in a detail not shown here. Identical values can stand only once.

Test: solvent given as SMILES

SMILES: CN(C)c1cc(C#N)c(N(C)C)c(C#N)c1
- emission maximum (in C1CCCCC1): 495.79 nm
- emission maximum (in C1CCOC1): 518.13 nm
- emission maximum (in C1COCCO1): 521.65 nm
- emission maximum (in CC1COC(=O)O1): 532.48 nm
- emission maximum (in CC#N): 529.94 nm
- emission maximum (in CC(C)=O): 524.93 nm
- emission maximum (in CC(C)OC(C)C): 503.02 nm
- emission maximum (in CCC#N): 525.76 nm
- emission maximum (in CCC(C)C): 493.58 nm
- emission maximum (in CCCCCC): 493.83 nm
- emission maximum (in CCCCCCCCO): 523.29 nm
- emission maximum (in CCCCCOCCCCC): 505.82 nm
- emission maximum (in CCCCOC(C)=O): 516.8 nm
- emission maximum (in CCCCOCCCC): 502.26 nm
- emission maximum (in CCCOCCC): 507.61 nm
- emission maximum (in CCO): 528.26 nm
- emission maximum (in CCOC(C)=O): 519.21 nm
- emission maximum (in CCOCC): 507.36 nm
- emission maximum (in CN(C)C=O): 533.9 nm
- emission maximum (in CO): 530.5 nm
- emission maximum (in CS(C)=O): 538.21 nm
- emission maximum (in Cc1ccccc1): 516.8 nm
- emission maximum (in ClCCCl): 523.56 nm
- emission maximum (in ClCCl): 522.74 nm
- emission maximum (in N#Cc1ccccc1): 529.1 nm
- emission maximum (in O): 555.25 nm
- emission maximum (in OCC(O)CO): 547.35 nm
- emission maximum (in c1ccccc1): 519.48 nm

SMILES: C(#Cc1ccc(-n2c3ccccc3c3ccccc32)cc1)c1ccccc1
- emission maximum (in CC#N): 443 nm
- emission maximum (in CO): 401 nm
- emission maximum (in Cc1ccccc1): 364 nm
- emission maximum (in ClC(Cl)Cl): 379 nm
- emission maximum (in ClCCl): 390 nm

SMILES: O=C1c2ccccc2NC(c2ccccc2)N1Cc1ccccc1 (stereo not given)
- emission maximum (in CC#N): 407 nm
- emission maximum (in CCCCCCCCCCCCCCCC): 383 nm
- emission maximum (in CO): 442 nm
- emission maximum (in ClC(Cl)Cl): 398 nm
- emission maximum (in c1ccccc1): 393 nm

SMILES: Cc1cc(-c2nc(-c3ccccc3)nc(-c3ccccc3)n2)ccc1-c1ccc2c(c1)C1(c3ccccc3-c3ccccc31)c1ccccc1N2c1ccccc1
- emission maximum (in c1cc(-c2cccc(-n3c4ccccc4c4ccccc43)c2)cc(-n2c3ccccc3c3ccccc32)c1): 450 nm

SMILES: c1ccc(-c2cn3ccc[n+]3[n-]2)cc1
- emission maximum (in ClCCl): 419 nm

SMILES: COC1(OC)C2(Cl)c3nc4cc(-c5cccs5)ccc4nc3C1(Cl)C1C[C@H]3[C@@H](CC12)C1(Cl)c2nc4ccc(-c5cccs5)cc4nc2C3(Cl)C1(OC)OC (stereo not given in full)
- emission maximum (in CC#N): 461 nm
- emission maximum (in CCCCCC): 412 nm
- emission maximum (in CCOC(C)=O): 439 nm
- emission maximum (in CO): 491 nm
- emission maximum (in Cc1ccccc1): 427 nm
- emission maximum (in ClC(Cl)Cl): 441 nm
- emission maximum (in ClCCl): 445 nm

SMILES: COc1ccc(-c2c(-c3ccc(C)cc3)c3n(c2-c2ccc(C)cc2)[B-](F)(F)[N+]2=C(c4ccc(C)cc4)C(/C=C/C(=O)OC4CC[C@@]5(C)C(=CC[C@H]6[C@@H]7CC[C@H]([C@H](C)CCCC(C)C)[C@@]7(C)CC[C@@H]65)C4)=C(c4ccc(C)cc4)C2=N3)cc1 (stereo not given in full)
- emission maximum (in ClC(Cl)Cl): 702 nm

SMILES: Oc1ccc(-c2nc(-c3ccccc3)c(-c3ccccc3)[nH]2)cc1
- emission maximum (in CO): 400 nm

SMILES: CCCCCCN(CCCCCC)c1ccc(C#Cc2ccc(C(F)(F)F)cc2)cc1
- emission maximum (in CO): 456 nm
- emission maximum (in ClCCl): 440 nm

SMILES: CN(C)c1ccc(N(C)C)cc1
- emission maximum (in C1CCCCC1): 394.48 nm

SMILES: F[B-]1(F)OC(c2ccc(C(F)(F)F)cc2)=Cc2cc(Cl)nc[n+]21
- emission maximum (in C1CCOC1): 428 nm
- emission maximum (in CC#N): 425 nm
- emission maximum (in CCCCCC): 421 nm
- emission maximum (in Cc1ccccc1): 434 nm
- emission maximum (in ClC(Cl)Cl): 426 nm
- emission maximum (in ClCCl): 426 nm

SMILES: Cn1c2ccccc2c(=O)c2ccccc21
- emission maximum (in CS(C)=O): 417 nm
- emission maximum (in O): 430 nm

SMILES: CCCCCCNC(=O)c1sc(-c2ccc(-c3cc(-c4ccc(C(C)(C)C)cc4)c(C(=O)NCCCCCC)s3)s2)cc1-c1ccc(C(C)(C)C)cc1
- emission maximum (in ClCCl): 448 nm

SMILES: N#Cc1ccc2c(c1)CCc1nc(-c3ccc([N+](=O)[O-])cc3)c3c(c1-2)CCc1cc(C#N)ccc1-3
- emission maximum (in C1CCOC1): 469 nm
- emission maximum (in CC#N): 525 nm
- emission maximum (in CCCCCC): 413 nm
- emission maximum (in CCOC(C)=O): 452 nm
- emission maximum (in CO): 475 nm
- emission maximum (in CS(C)=O): 510 nm
- emission maximum (in Cc1ccccc1): 443 nm
- emission maximum (in ClCCl): 475 nm

SMILES: c1ccc2nc3cccc(-c4ccc(-n5c6ccccc6c6ccccc65)cc4)c3cc2c1
- emission maximum (in C1CCOC1): 466 nm
- emission maximum (in CC#N): 527 nm
- emission maximum (in CC(C)=O): 497 nm
- emission maximum (in CC(C)OC(C)C): 444 nm
- emission maximum (in CCCCCC): 434 nm
- emission maximum (in CCCCOCCCC): 442 nm
- emission maximum (in CCOC(C)=O): 460 nm
- emission maximum (in CCOCC): 443 nm
- emission maximum (in ClCCl): 486 nm

SMILES: CC1(C)c2ccccc2-n2c(-c3ccc(N4c5ccccc5Oc5ccccc54)cc3)nc3cccc1c32
- emission maximum (in Cc1ccccc1): 502 nm
- emission maximum (in O=P(c1ccccc1)(c1ccccc1)c1ccccc1Oc1ccccc1P(=O)(c1ccccc1)c1ccccc1): 485 nm

SMILES: CC(C)(C)C1CCC(=CS/C=C/c2ccc(/C=C/SC=C3CCC(C(C)(C)C)CC3)cc2)CC1 (stereo not given)
- emission maximum (in ClCCl): 422 nm

SMILES: N#Cc1nc2c3ccc(-n4c5ccccc5c5ccccc54)cc3c3cc(-n4c5ccccc5c5ccccc54)ccc3c2nc1C#N
- emission maximum (in C1COCCO1): 568.06 nm
- emission maximum (in CCCCCC): 469.61 nm
- emission maximum (in Cc1ccccc1): 531 nm
- emission maximum (in ClC(Cl)Cl): 612.69 nm
- emission maximum (in O=P(c1ccccc1)(c1ccccc1)c1cccc(-c2cc(-n3c4ccccc4c4ccccc43)cc(-n3c4ccccc4c4ccccc43)c2)n1): 560 nm

SMILES: CC1=CC(C)=[N+]2C1=C(C1=C(C)C3=C(C)c4c(C)cc(C)n4[B-](F)(F)[N+]3=C1C)c1c(C)cc(C)n1[B-]2(F)F
- emission maximum (in ClC(Cl)Cl): 527 nm

SMILES: CC(C)(C)NC(=O)c1ccc(Br)c2ccc3c4ccc(F)cc4c4cc(F)ccc4c3c12
- emission maximum (in ClCCl): 394 nm

SMILES: c1ccc2c(c1)c1ccccc1c1ncncc21
- emission maximum (in ClCCl): 368 nm

SMILES: CN(C)c1ccc2nc(-c3ccc(C(=O)O)cc3)sc2c1
- emission maximum (in C1CCCCC1): 426 nm
- emission maximum (in CC#N): 558 nm
- emission maximum (in CC(C)O): 493 nm
- emission maximum (in CO): 512 nm
- emission maximum (in CS(C)=O): 568 nm
- emission maximum (in ClC(Cl)Cl): 509 nm
- emission maximum (in c1ccccc1): 483 nm and 486 nm

SMILES: O=C(O)c1ccc(-c2nc(-c3ccccc3)c3c4ccccc4ccn23)cc1
- emission maximum (in CC#N): 473 nm

SMILES: Nc1c(-c2nn([C@H]3C[C@H](O)[C@@H](CO)O3)c3ncnc(N)c23)ccc2ccccc12
- emission maximum (in C1COCCO1): 428 nm
- emission maximum (in CC#N): 458 nm
- emission maximum (in CC(C)O): 480 nm
- emission maximum (in CCO): 489 nm
- emission maximum (in CCOC(C)=O): 433 nm
- emission maximum (in CN(C)C=O): 452 nm
- emission maximum (in CO): 498 nm
- emission maximum (in CS(C)=O): 450 nm
- emission maximum (in OCC(O)CO): 404 nm
- emission maximum (in OCCO): 493 nm

SMILES: CCCCCCn1c2ccccc2c2cc3c4cc5c6ccccc6n(CCCCCC)c5cc4c4cc5c(C)cc(=O)oc5cc4c3cc21
- emission maximum (in ClC(Cl)Cl): 415 nm

SMILES: CC1(C)C(/C=C/C2=C(Oc3ccc(CCN=C=S)cc3I)C(=C/C=C3/N(CCCS(=O)(=O)[O-])c4ccccc4C3(C)C)/CCC2)=[N+](CCCS(=O)(=O)[O-])c2ccccc21
- emission maximum (in CO): 796 nm

SMILES: COc1ccc(-c2c3cc4ccccc4cc3c(C#Cc3ccccc3)c3cc4ccccc4cc23)cc1
- emission maximum (in ClCCl): 697 nm

SMILES: C(C#Cc1ccc2ccc3cccc4ccc1c2c34)#Cc1cccc2ccccc12
- emission maximum (in C1CCCCC1): 411 nm
- emission maximum (in CC#N): 420 nm
- emission maximum (in CO): 414 nm
- emission maximum (in ClCCl): 420 nm

SMILES: CC(C)c1cccc(C(C)C)c1N1C(=O)c2ccc3c(-c4ccccc4)c4c5ccc6c7c(ccc(c(-c8ccccc8)c4c4ccc(c2c34)C1=O)c75)C(=O)N(c1c(C(C)C)cccc1C(C)C)C6=O
- emission maximum (in ClCCl): 702 nm

SMILES: CN(C)c1ccc(C#Cc2nc(-c3ccccc3)nc3ccccc23)cc1
- emission maximum (in C1CCCCC1): 423 nm
- emission maximum (in C1CCOC1): 549 nm
- emission maximum (in CC#N): 570 nm
- emission maximum (in CS(C)=O): 584 nm
- emission maximum (in ClCCl): 551 nm

SMILES: FC(F)(F)C(F)(F)C(F)(F)c1nc2c(-c3ccsc3)cc3c4cc(-c5ccsc5)c5nc(C(F)(F)C(F)(F)C(F)(F)F)nc6c(-c7ccsc7)cc(c7cc(-c8ccsc8)c(n1)c2c37)c4c56
- emission maximum (in C1CCOC1): 574 nm

SMILES: CCCCN(CCCC)c1ccc(/C=C/c2ccc3nc(/C=C/c4nc5ccc(/C=C/c6ccc(N(CCCC)CCCC)cc6)cc5n(CCC)c4=O)c(=O)n(CCC)c3c2)cc1
- emission maximum (in C1COCCO1): 630 nm
- emission maximum (in ClCCl): 736 nm

SMILES: Cc1cc2c3ccccc3[nH]c2c2[nH]c3ccccc3c12
- emission maximum (in ClCCl): 371 nm

SMILES: COc1ccc(C#CC2=C3CCc4ccccc4C3=[O+][B-](F)(F)O2)cc1
- emission maximum (in ClCCl): 493 nm

SMILES: Cc1cc(-c2ccc(C(C)(C)C)cc2)cc(C)[o+]1
- emission maximum (in CC#N): 430 nm
- emission maximum (in ClCCl): 417 nm

SMILES: C[Si]1(c2ccccc2)C(c2ccc(-n3c4ccccc4c4ccccc43)cc2)=C(c2ccccc2)C(c2ccccc2)=C1c1ccc(-n2c3ccccc3c3ccccc32)cc1
- emission maximum (in C1CCOC1): 520 nm

SMILES: CCCCCCCCOc1ccc(-c2c3c4n(c(-c5ccc(OCCCCCCCC)cc5)c3c3n2[B-](F)(F)[n+]2c(ccc5ccccc52)N=3)[B-](F)(F)[n+]2c(ccc3ccccc32)N=4)cc1
- emission maximum (in ClC(Cl)Cl): 682 nm

SMILES: c1ccc(-c2nc(-c3ccccn3)sc2N(c2ccccc2)c2ccccc2)cc1
- emission maximum (in ClC(Cl)Cl): 482 nm

SMILES: COc1ccc2c(c1)N(c1ccc(C)cc1)c1cc3c(cc1=N2)Oc1c(cc(C(C)(C)C)cc1C(C)(C)C)N=3
- emission maximum (in CC#N): 625 nm
- emission maximum (in CCCCCC): 586 nm
- emission maximum (in CO): 635 nm

SMILES: CC(C)[Si](C#Cc1ccc(C#C[Si](C(C)C)(C(C)C)C(C)C)c2nc3c(ccc4ccccc43)nc12)(C(C)C)C(C)C
- emission maximum (in CCCCCC): 444 nm

SMILES: CN1C(=CC2=C([O-])C(=CC3=[N+](C)c4ccccc4C3(C)C)C2=O)C(C)(C)c2ccccc21
- emission maximum (in ClC(Cl)Cl): 643 nm

SMILES: Cc1ccc(C2=C3C=CC(C#Cc4ccccc4)=[N+]3[B-](F)(F)n3c(C#Cc4ccccc4)ccc32)cc1
- emission maximum (in C1CCCCC1): 626 nm
- emission maximum (in C1CCOC1): 625 nm
- emission maximum (in C1COCCO1): 626 nm
- emission maximum (in CCOC(C)=O): 621 nm
- emission maximum (in CO): 622 nm
- emission maximum (in Cc1ccccc1): 629 nm
- emission maximum (in ClC(Cl)Cl): 628 nm
- emission maximum (in ClCCl): 628 nm

SMILES: COc1cc2sc3cc(OC)c(F)cc3c(=O)c2cc1F
- emission maximum (in CS(C)=O): 416 nm

SMILES: CC(C)[Si](C#Cc1c2ccccc2c(C#C[Si](C(C)C)(C(C)C)C(C)C)c2nc3c(nc12)Cc1ccccc1-3)(C(C)C)C(C)C
- emission maximum (in CCCCCC): 494 nm
